Test results as given in patent publication US20060100260A1, “Substituted pyrazoline carboxanilides for use as pesticides” (priority 2002, published 2006).

Experiments:
[1] = logP determination by HPLC (EEC Directive 79/831 Annex V.A8); format: physicochemical; conditions: reversed-phase HPLC column (C 18), pH 2.3, reversed-phase column (C 18), 43° C.
Method: The logP values given in the Preparation Examples are determined in accordance with EEC Directive 79/831 Annex V.A8 by HPLC (High Performance Liquid Chromatography) using a reversed-phase column (C 18). Temperature: 43° C.
The determination is carried out in the acidic range at pH 2.3 using the mobile phases 0.1% aqueous phosphoric acid and acetonitrile; linear gradient from 10% acetonitrile to 90% acetonitrile.
Calibration is carried out using unbranched alkan-2-ones (having 3 to 16 carbon atoms) with known logP values (determination of the logP values by the retention times using linear interpolation between two successive alkanones).

[2] = system: caterpillars of the armyworm (Spodoptera frugiperda); assay: Spodoptera frugiperda test; format: in vivo; conditions: active compound concentration 100 ppm; after 7 days; dipped cabbage leaves
Method: (§1) [table] To produce a suitable preparation of active compound, 1 part by weight of active compound is mixed with the stated amounts of solvent and emulsifier, and the concentrate is diluted with emulsifier-containing water to the desired concentration. Cabbage leaves (Brassica oleracea) are treated by being dipped into the preparation of active compound of the desired concentration and are populated with caterpillars of the armyworm (Spodoptera frugiperda) while the leaves are still moist. After the desired period of time, the kill in % is determined. 100% means that all caterpillars have been killed; 0% means that none of the caterpillars have been killed.

[3] = system: larvae of the mustard beetle (Phaedon cochleariae); assay: Phaedon larvae test; format: in vivo; conditions: active compound concentration 100 ppm; after 7 days; dipped cabbage leaves
Method: as §1, with “with larvae” for “with caterpillars”, “the mustard beetle (Phaedon cochleariae)” for “the armyworm (Spodoptera frugiperda)”, “all beetle larvae” for “all caterpillars”, “the beetle larvae” for “the caterpillars”

[4] = system: caterpillars of the diamondback moth (Plutella xylostella); assay: Plutella test; format: in vivo; conditions: active compound concentration 100 ppm; after 7 days; dipped cabbage leaves
Method: as §1, with “diamondback moth (Plutella xylostella)” for “armyworm (Spodoptera frugiperda)”

Heliothis armigera = Heliothis armigera test; format: in vivo; conditions: active compound concentration 100 ppm; after 7 days; dipped soya bean shoots

chromatographic logP [1]	SMILES	kill [2] [%]	kill [3] [%]	kill [4] [%]	kill (Heliothis armigera) [%]
2.64	Clc1ccc(C2=NNCC2n2cc(Cl)cn2)cc1 (stereo not drawn) [Example (II-1), 3-(4-chlorophenyl)-4-(4-chloropyrazol-1-yl)-4,5-dihydro-1H-pyrazole]				
3.94	N#CCN(C(=O)N1CC(n2cc(Cl)cn2)C(c2ccc(Cl)cc2)=N1)c1ccc(Cl)cc1 (stereo not drawn) [Example 1, 3-(4-chlorophenyl)-4-(4-chloropyrazol-1-yl)-4,5-dihydro-1-pyrazolecarboxylic acid (N-cyanomethyl)-4-chloroanilide]	100	100	100	100
